Data published in patent US20210186947A1, “TOMM6-INTERACTING EXTRACTS AND COMPOUNDS FOR USE IN THE TREATMENT AND PROPHYLAXIS OF NERVOUS SYSTEM DISEASES, ATHEROSCLEROSIS, HEPATITIS B INFECTION AND HUMAN PAPILLOMA VIRUS (HPV) INFECTION” (ETH ZURICH, priority 2018, published 2021).

Assays:
[1] = system: hyperphosphorylated PHF tau; assay: Hippocampal hyperphosphorylated PHF tau in aged rats subjected to CUMS, immunoblot; format: in vivo, rats (Sprague Dawley); details: 4 weeks of CUMS, 10 mg/kg/d during CUMS
[2] = Measurement of serum level in rats by HPLC; format: in vivo, Sprague Dawley rats
Procedure: (§1) Serum concentrations of alizarin were determined with serum isolated from the blood of male and female German shepherd dogs (age: 8-9 months) taken at different time points (0.5 h, 1 h, 2 h, 4 h, 6 h, 8 h, 24 h) after oral intake of the indicated doses for 4 weeks. In addition, serum concentrations of alizarin (Compound-1) were determined in male and female Sprague Dawley rats (body weight: 200-250 g) treated for 1 month and/or three months by oral gavage of alizarin at a once daily dose of 100 mg/kg, 50 mg/kg, 25 mg/kg and 12.5 mg/kg. Serum proteins were removed by acetonitrile precipitation, and alizarin was extracted by chloroform before separation on an HPLC-C18 column (Poroshell 120 EC-C18, 3.0×50 mm, Agilent) with an HPLC system (Agilent 1100 Series) and detection at OD245 nm. For quantitative determination of Compound-7 and Compound-10F in rat and dog serum, serum proteins were also removed by acetonitrile precipitation before HPLC analysis as detailed above and detection at OD254 nm.

aggregated Agtr2 = assay: ELISA of aggregated Agtr2 protein in PBMC of rats subjected to CUMS; format: in vivo, rats (Sprague Dawley); details: aged rats, 4 weeks of CUMS, treated during CUMS
Excerpt: More preferably, AGTR2 aggregation is detected with a sandwich ELISA. To this end the following steps can be performed: • (i) The first step of the sandwich ELISA is the immobilization of AGTR2-specific capture antibodies (any species, e.g. rabbit, rat, mouse, cameloid; serum, affinity-enriched; F(ab)2 fragments, nanobodies as generated in step (vi)) on an ELISA plate (Nunc Maxisorb), 0.1-10 microg/well, preferably 1-5 microg, more preferably, 1-2 microg in 100 microL of a suitable buffer (e.g. 0.1 M sodium acetate, 0.1 M NaCl, pH 5.5; or 15.9 mM Na2CO3, 35 mM NaHCO3, pH 9.6) by overnight incubation at 4° C. […] After the incubation time, unbound antibody is removed by washing steps (without Tween 20). • (v) Bound antibody is detected by a substrate reaction, which includes the addition of 50-400 microL, preferably 100-200 microL of substrate buffer (18 microL of 30% H2O2 added to 10.5 ml ABTS solution (22 mg ABTS dissolved in 100 ml of 50 mM sodium citrate, pH 4.0-pH 4.5). Any other substrate (e.g. is also feasible. After an incubation time of 1 min-5 h at 4° C.-37° C., preferably 30 min-1 h, more preferably 30 min at 37° C., optical density is measured at 410 nm, e.g. on a plate reader (Versa Max, Molecular Devices). […]

Tomm6 = molecular target: T1, Tomm6 (Mus musculus, UniProt Q9CQN3); assay: Immunoblot detection of hippocampal Tomm6 protein in treated Tg2576 mice; format: in vivo; details: Tg2576 AD mice subjected to the CUMS protocol, treated during CUMS (10 mg/kg/d)
T1 construct: hippocampi were isolated from 5-10 aged Tg2576 mice, pulverized under liquid nitrogen and solubilized; from tissue; host or cells: hippocampus of Tg2576 mice
T1 sequence (Q9CQN3 1-74): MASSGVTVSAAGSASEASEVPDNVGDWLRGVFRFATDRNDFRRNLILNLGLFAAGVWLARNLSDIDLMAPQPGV

[3] = Toxic adverse effects during 3 months of treatment of Tg2576 AD mice; format: in vivo; details: daily dose of 10 mg/kg
[4] = Measurement of serum level in dogs by HPLC; format: in vivo, German shepherd dogs
Procedure: as §1

[5] = system: hyperphosphorylated PHF-Tau; assay: Hippocampal hyperphosphorylated PHF-Tau in Tg2576 mice subjected to CUMS, binding assay with [125I]-labeled AT8 antibody; format: in vivo; details: 15 months-old Tg2576 mice, 3 months of CUMS, treated during CUMS; compounds 10 mg/kg/d
Agtr2 (AT2R) = assay: Immunoblot detection of Agtr2 in PBMCs of aged rats subjected to CUMS; format: in vivo, rats (Sprague Dawley); details: 4 weeks of CUMS, treated during CUMS
[6] = system: hippocampal neuronal cell bodies (NeuN); assay: Hippocampal neuronal loss in Tg2576 mice subjected to CUMS, binding assay with [125I]-labeled anti-NeuN antibody; format: in vivo; details: 15 months-old Tg2576 mice, 3 months of CUMS, treated during CUMS; compounds 10 mg/kg/d

## Cc1nc(CO)cc(-c2ccc(F)cc2)c1C(N)=O [Compound-10F, 4-(4-fluorophenyl)-6-(hydroxymethyl)-2-methyl-pyridine-3-carboxamide]
[1]
  hippocampal accumulation of hyperphosphorylated PHF tau: prevented the hippocampal accumulation of hyperphosphorylated PHF tau
[2]; rats
  oral bioavailability / serum concentrations after oral intake: had oral bioavailability
[2]; rats vs dogs
  oral doses required to achieve equivalent peak serum concentrations, higher in rats compared to dogs: approximately 10 fold
[2]; rats, repeated once daily oral intake of 20 mg/kg/d
  time of peak serum concentration: 1 h
Aggregated Agtr2
  PBMC content of aggregated Agtr2 protein (ELISA): significantly retarded the CUMS-induced accumulation of Agtr2 aggregates
Tomm6
  hippocampal Tomm6 protein content: significantly higher
[3]
  toxic adverse effects: did not show any detectable toxic adverse effects
[4]
  oral bioavailability / serum concentrations after oral intake: had oral bioavailability
[5]
  hippocampal content of hyperphosphorylated PHF-Tau: significantly inhibited the hippocampal accumulation of hyperphosphorylated PHF tau
Agtr2 (AT2R)
  PBMC content of monomeric Agtr2: significantly higher compared to untreated controls
  accumulation of aggregated Agtr2 in PBMCs: prevented the accumulation of aggregated Agtr2
[6]
  hippocampal neuronal loss: retarded the CUMS-induced hippocampal neuronal loss
